Experimental data: PubChem BioAssay AID2060341 (Molecular Pharmacology Branch, DTP, NCI, 2025)
pIC50: −log10 of the molar value. Several values for one entry are separate records, joined by “and”; a condition that tells them apart may be missing. Identical values can stand only once.

Tested on: 327498-153-R-J2-PDC multicell spheroid viability
Test: Anticancer human tumor 327498-153-R-J2-PDC patient-derived uterine carcinosarcoma cell line growth inhibition [IpAb]
Conditions: for viability, T/C: stronger effect = lower value
Method in brief: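 Multi-cell spheroids of 60% tumour cells, 25% HUVEC and 15% MSC in ultra-low-attachment U-bottom wells, treated with agents combined with ipatasertib or abemaciclib. Half-log ranges top out near clinical Cmax, or 10 microM when Cmax is unknown.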

[1] = curve of first compound, second compound 0.01 µM
[2] = curve of first compound, second compound 0.0316 µM
[3] = curve of first compound, second compound 0.1 µM
[4] = curve of first compound, second compound 0.316 µM
[5] = curve of first compound, second compound 1 µM
[6] = second compound 0.01 µM, first compound 0.0316 µM
[7] = second compound 0.01 µM, first compound 0.1 µM
[8] = second compound 0.01 µM, first compound 0.316 µM
[9] = second compound 0.01 µM, first compound 1 µM
[10] = second compound 0.0316 µM, first compound 0.0316 µM
[11] = second compound 0.0316 µM, first compound 0.1 µM
[12] = second compound 0.0316 µM, first compound 0.316 µM
[13] = second compound 0.0316 µM, first compound 1 µM
[14] = second compound 0.1 µM, first compound 0.0316 µM
[15] = second compound 0.1 µM, first compound 0.1 µM
[16] = second compound 0.1 µM, first compound 0.316 µM
[17] = second compound 0.1 µM, first compound 1 µM
[18] = second compound 0.316 µM, first compound 0.0316 µM
[19] = second compound 0.316 µM, first compound 0.1 µM
[20] = second compound 0.316 µM, first compound 0.316 µM
[21] = second compound 0.316 µM, first compound 1 µM
[22] = second compound 1 µM, first compound 0.0316 µM
[23] = second compound 1 µM, first compound 0.1 µM
[24] = second compound 1 µM, first compound 0.316 µM
[25] = second compound 1 µM, first compound 1 µM
[26] = second compound 0.01 µM, first compound 3.16 µM
[27] = second compound 0.01 µM, first compound 10 µM
[28] = second compound 0.0316 µM, first compound 3.16 µM
[29] = second compound 0.0316 µM, first compound 10 µM
[30] = second compound 0.1 µM, first compound 3.16 µM
[31] = second compound 0.1 µM, first compound 10 µM
[32] = second compound 0.316 µM, first compound 3.16 µM
[33] = second compound 0.316 µM, first compound 10 µM
[34] = second compound 1 µM, first compound 3.16 µM
[35] = second compound 1 µM, first compound 10 µM
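Also: spheroids exposed to agents for 7 days.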
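For viability, T/C in this document: 100% = DMSO vehicle control viability.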

SMILES: COc1c(OCCCN2CCOCC2)ccc2c3n(c(=NC(=O)c4cnc(N)nc4)nc12)CCN3 + CCN1CCN(Cc2ccc(Nc3ncc(F)c(-c4cc(F)c5nc(C)n(C(C)C)c5c4)n3)nc2)CC1
- pIC50 [1]: 7.20
- pIC50 [2]: 7.49
- pIC50 [3]: 7.86
- pIC50 [4]: 8.25
- pIC50 [5]: 8.20
- viability, T/C (second compound 0.01 µM, first compound 0.00316 µM): 81.9%
- viability, T/C (second compound 0.01 µM, first compound 0.01 µM): 78.5%
- viability, T/C [6]: 70.9%
- viability, T/C [7]: 36.3%
- viability, T/C [8]: 16.8%
- viability, T/C [9]: 9.29%
- viability, T/C (second compound 0.0316 µM, first compound 0.00316 µM): 70.9%
- viability, T/C (second compound 0.0316 µM, first compound 0.01 µM): 60.8%
- viability, T/C [10]: 52.5%
- viability, T/C [11]: 24.9%
- viability, T/C [12]: 12.4%
- viability, T/C [13]: 8.64%
- viability, T/C (second compound 0.1 µM, first compound 0.00316 µM): 63%
- viability, T/C (second compound 0.1 µM, first compound 0.01 µM): 55.5%
- viability, T/C [14]: 37.4%
- viability, T/C [15]: 22.6%
- viability, T/C [16]: 12.3%
- viability, T/C [17]: 9.1%
- viability, T/C (second compound 0.316 µM, first compound 0.00316 µM): 51.6%
- viability, T/C (second compound 0.316 µM, first compound 0.01 µM): 48.6%
- viability, T/C [18]: 38%
- viability, T/C [19]: 23.3%
- viability, T/C [20]: 15.3%
- viability, T/C [21]: 10.6%
- viability, T/C (second compound 1 µM, first compound 0.00316 µM): 51.9%
- viability, T/C (second compound 1 µM, first compound 0.01 µM): 49.2%
- viability, T/C [22]: 39.8%
- viability, T/C [23]: 26.6%
- viability, T/C [24]: 17.7%
- viability, T/C [25]: 10.6%

SMILES: Cn1nccc1Nc1nccc(-c2ccn(C(CO)c3ccc(Cl)c(F)c3)c(=O)c2)n1 (stereo not given) + CCN1CCN(Cc2ccc(Nc3ncc(F)c(-c4cc(F)c5nc(C)n(C(C)C)c5c4)n3)nc2)CC1
- pIC50 [1]: 5.43
- pIC50 [2]: 5.71
- pIC50 [3]: 6.18
- pIC50 [4]: > 7.50
- pIC50 [5]: > 7.50
- viability, T/C [6]: 78%
- viability, T/C [7]: 70.3%
- viability, T/C [8]: 67%
- viability, T/C [9]: 74.3%
- viability, T/C [26]: 53.6%
- viability, T/C [27]: 26.7%
- viability, T/C [10]: 69.1%
- viability, T/C [11]: 55.4%
- viability, T/C [12]: 52.8%
- viability, T/C [13]: 57.9%
- viability, T/C [28]: 48%
- viability, T/C [29]: 30.4%
- viability, T/C [14]: 55.6%
- viability, T/C [15]: 50%
- viability, T/C [16]: 48.5%
- viability, T/C [17]: 49.2%
- viability, T/C [30]: 44%
- viability, T/C [31]: 26.4%
- viability, T/C [18]: 53.5%
- viability, T/C [19]: 42.6%
- viability, T/C [20]: 42.4%
- viability, T/C [21]: 44.4%
- viability, T/C [32]: 41.5%
- viability, T/C [33]: 28.1%
- viability, T/C [22]: 46.1%
- viability, T/C [23]: 45.3%
- viability, T/C [24]: 40.3%
- viability, T/C [25]: 43.6%
- viability, T/C [34]: 45.3%
- viability, T/C [35]: 30.4%

SMILES: Cn1cnc2c(F)c(Nc3ccc(Br)cc3Cl)c(C(=O)NOCCO)cc21 + CC(C)NCC(C(=O)N1CCN(c2ncnc3c2C(C)CC3O)CC1)c1ccc(Cl)cc1
- pIC50 [3]: 6.37
- pIC50 [4]: 7.21
- pIC50 [5]: > 8.02
- pIC50 (curve of first compound, second compound 3.16 µM): > 8.02
- pIC50 (curve of first compound, second compound 10 µM): > 8.02
- viability, T/C (second compound 0.1 µM, first compound 0.00949 µM): 91.7%
- viability, T/C (second compound 0.1 µM, first compound 0.03 µM): 69.9%
- viability, T/C (second compound 0.1 µM, first compound 0.0949 µM): 66.2%
- viability, T/C (second compound 0.1 µM, first compound 0.3 µM): 51.7%
- viability, T/C (second compound 0.1 µM, first compound 0.949 µM): 46.1%
- viability, T/C (second compound 0.1 µM, first compound 3 µM): 34.1%
- viability, T/C (second compound 0.316 µM, first compound 0.00949 µM): 60.2%
- viability, T/C (second compound 0.316 µM, first compound 0.03 µM): 51.6%
- viability, T/C (second compound 0.316 µM, first compound 0.0949 µM): 48%
- viability, T/C (second compound 0.316 µM, first compound 0.3 µM): 41.9%
- viability, T/C (second compound 0.316 µM, first compound 0.949 µM): 29.7%
- viability, T/C (second compound 0.316 µM, first compound 3 µM): 20.6%
- viability, T/C (second compound 1 µM, first compound 0.00949 µM): 41.9%
- viability, T/C (second compound 1 µM, first compound 0.03 µM): 34.6%
- viability, T/C (second compound 1 µM, first compound 0.0949 µM): 32.9%
- viability, T/C (second compound 1 µM, first compound 0.3 µM): 28.9%
- viability, T/C (second compound 1 µM, first compound 0.949 µM): 20.4%
- viability, T/C (second compound 1 µM, first compound 3 µM): 11.5%
- viability, T/C (second compound 3.16 µM, first compound 0.00949 µM): 33.8%
- viability, T/C (second compound 3.16 µM, first compound 0.03 µM): 27.2%
- viability, T/C (second compound 3.16 µM, first compound 0.0949 µM): 21%
- viability, T/C (second compound 3.16 µM, first compound 0.3 µM): 21%
- viability, T/C (second compound 3.16 µM, first compound 0.949 µM): 13.3%
- viability, T/C (second compound 3.16 µM, first compound 3 µM): 7.22%
- viability, T/C (second compound 10 µM, first compound 0.00949 µM): 27.1%
- viability, T/C (second compound 10 µM, first compound 0.03 µM): 22.4%
- viability, T/C (second compound 10 µM, first compound 0.0949 µM): 16.3%
- viability, T/C (second compound 10 µM, first compound 0.3 µM): 15.7%
- viability, T/C (second compound 10 µM, first compound 0.949 µM): 12.2%
- viability, T/C (second compound 10 µM, first compound 3 µM): 6.89%

SMILES: Cc1nc(NC(=O)N2CCCC2C(N)=O)sc1-c1ccnc(C(C)(C)C(F)(F)F)c1 (stereo not given)
- viability, T/C (compound 0.0316 µM): 97.9% and 110%
- viability, T/C (compound 0.1 µM): 95.7% and 102%
- viability, T/C (compound 0.316 µM): 90% and 98.9%
- viability, T/C (compound 1 µM): 77% and 89.3%
- viability, T/C (compound 3.16 µM): 76.2% and 80.2%
- viability, T/C (compound 10 µM): 63% and 60.7%
- pIC50 (curve of compound): < 5.00

SMILES: CC(C)NCC(C(=O)N1CCN(c2ncnc3c2C(C)CC3O)CC1)c1ccc(Cl)cc1 (stereo not given)
- viability, T/C (compound 0.1 µM): 98.4% [middle of 13 runs]
- viability, T/C (compound 0.316 µM): 80.2% [middle of 13 runs]
- viability, T/C (compound 1 µM): 59.7% [middle of 13 runs]
- viability, T/C (compound 3.16 µM): 48.1% [middle of 13 runs]
- viability, T/C (compound 10 µM): 34.2% [middle of 13 runs]
- IC50 (compound alone, run of 05/18/2021): 2.46 µM [middle of 13 runs]

SMILES: Cc1nc(NC(=O)N2CCCC2C(N)=O)sc1-c1ccnc(C(C)(C)C(F)(F)F)c1 (stereo not given) + CCN1CCN(Cc2ccc(Nc3ncc(F)c(-c4cc(F)c5nc(C)n(C(C)C)c5c4)n3)nc2)CC1
- pIC50 [1]: 5.19
- pIC50 [2]: 5.98
- pIC50 [3]: 6.35
- pIC50 [4]: 6.58
- pIC50 [5]: 6.82
- viability, T/C [6]: 91.6%
- viability, T/C [7]: 85.8%
- viability, T/C [8]: 77%
- viability, T/C [9]: 68.2%
- viability, T/C [26]: 63%
- viability, T/C [27]: 42.5%
- viability, T/C [10]: 69.7%
- viability, T/C [11]: 69.3%
- viability, T/C [12]: 63.3%
- viability, T/C [13]: 46.4%
- viability, T/C [28]: 41.3%
- viability, T/C [29]: 27.3%
- viability, T/C [14]: 61.8%
- viability, T/C [15]: 58.5%
- viability, T/C [16]: 50.4%
- viability, T/C [17]: 46%
- viability, T/C [30]: 36.9%
- viability, T/C [31]: 26%
- viability, T/C [18]: 58%
- viability, T/C [19]: 57.2%
- viability, T/C [20]: 47.8%
- viability, T/C [21]: 42.6%
- viability, T/C [32]: 35.3%
- viability, T/C [33]: 28.1%
- viability, T/C [22]: 54%
- viability, T/C [23]: 55.7%
- viability, T/C [24]: 43.5%
- viability, T/C [25]: 41.1%
- viability, T/C [34]: 34.8%
- viability, T/C [35]: 25.9%

SMILES: C=CC(=O)N1CCN(c2nc(=O)n(-c3c(C)ccnc3C(C)C)c3nc(-c4c(O)cccc4F)c(F)cc23)C(C)C1 (stereo not given)
- viability, T/C (compound 0.0316 µM): 73.5% and 77.4%
- viability, T/C (compound 0.1 µM): 69.2% and 69.6%
- viability, T/C (compound 0.316 µM): 58.3% and 67.6%
- viability, T/C (compound 1 µM): 65.6% and 63.7%
- viability, T/C (compound 3.16 µM): 67.2% and 65%
- viability, T/C (compound 10 µM): 55.8% and 59.9%
- pIC50 (curve of compound): < 5.00
